In patent publication US20240423907A1, “Improved Nasal Administration of Pharmaceutical Formulations” (Cyrano Therapeutics, Inc., priority 2022, published 2024):

Assays:
[1] = system: subject diagnosed with allergic rhinitis; assay: Treatment of allergic rhinitis in a subject; type: in vivo; details: nasal spray device described herein, effective dose 1× daily in each naris
Text: A subject is admitted to a clinic for nasal congestion, sneezing, itchy eyes, and watery eyes. The subject is diagnosed with allergic rhinitis. The subject is prescribed a fluticasone propionate composition in a nasal spray device described herein. The subject administers the nasal spray in an effective dose 1× daily in each naris. The nasal spray is characterized by a spray containing a D50 of about 15 μm to about 24 μm, a D90 of from about 30 μm to about 50 μm, and where less than about 3% of the droplets in the plume of a spray have a size of less than about 10 μm.

[2] = system: subject diagnosed with a sinus infection; assay: Treatment of sinusitis in a subject; type: in vivo; details: nasal spray device described herein, effective dose 2× daily in each naris
Text: A subject is admitted to a clinic for nasal congestion, nasal inflammation, facial pain (e.g., pain around the eyes, cheeks, nose and forehead). The subject is diagnosed with a sinus infection. The subject is prescribed a beclomethasone dipropionate composition in a nasal spray device described herein. The subject administers the nasal spray in an effective dose 2× daily in each naris. The nasal spray is characterized by a spray containing a D50 of about 15 μm to about 24 μm, a D90 of from about 30 μm to about 50 μm and where less than about 3% of the droplets in the plume of a spray have a size of less than about 10 μm.

| SMILES | symptoms of allergic rhinitis (sneezing, itchy eyes, nasal congestion, watery eyes) after administration [1] | symptoms of the sinus infection (pain, nasal inflammation and congestion) after administration [2] |
| --- | --- | --- |
| CCC(=O)O[C@]1(C(=O)SCF)[C@H](C)C[C@H]2[C@@H]3C[C@H](F)C4=CC(=O)C=C[C@]4(C)[C@@]3(F)[C@@H](O)C[C@@]21C [fluticasone propionate] | reduced symptoms | – |
| CCC(=O)OCC(=O)[C@@]1(OC(=O)CC)[C@@H](C)C[C@H]2[C@@H]3CCC4=CC(=O)C=C[C@]4(C)[C@@]3(Cl)[C@@H](O)C[C@@]21C [beclomethasone dipropionate] | – | reduced symptoms |
